According to patent US20260102501A1, “ANTI-CANCER NUCLEAR HORMONE RECEPTOR-TARGETING COMPOUNDS” (Nuvation Bio Inc., priority 2022, published 2026):
Numbered stars: 1 amine (or outer) side, 2 acyl side, 3 side chain; on linkers, the order of the positions; unused ones are H or OH. Square brackets hold non-standard residues; d marks the D form. Peptide text beside a SMILES is read from it. * marks the point of attachment. X1 = CC(=O)O[C@]1(C(C)=O)CC[C@H]2[C@@H]3CCC4=CC(=O)CCC4=C3[C@@H](c3ccc(*)cc3)C[C@@]21C; Exatecan = CC[C@@]1(O)C(=O)OCc2c1cc1n(c2=O)Cc2c-1nc1cc(F)c(C)c3c1c2[C@@H](N*)CC3; NHCH2OCH2CO = O=C(COCN[*:1])[*:2]; Sar = CNCC(=O)O

Columns and labels:
T47D cells = experiment: Cell viability assay (CellTiterGlo); type: cell-based; conditions: Homo sapiens, 144 h, read-out: T47D (IC50, nM)
[1] = biological target: T1, Progesterone Receptor (PR)-LBD and coactivator peptide (Homo sapiens, UniProt P06401); experiment: PR coactivator antagonist assay; conditions: 2.5 nM PR-LBD, 10 nM progesterone-induced fluorescence response
T1 sequence (P06401 679-913 limits assumed): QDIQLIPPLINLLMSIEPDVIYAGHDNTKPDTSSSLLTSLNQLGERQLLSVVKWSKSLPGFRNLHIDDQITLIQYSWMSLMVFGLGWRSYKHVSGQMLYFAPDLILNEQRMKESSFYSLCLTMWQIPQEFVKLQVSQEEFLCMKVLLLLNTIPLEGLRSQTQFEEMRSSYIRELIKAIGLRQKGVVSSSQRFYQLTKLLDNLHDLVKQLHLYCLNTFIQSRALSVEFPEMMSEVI

22Rv1 cells = experiment: Cell viability assay (CellTiterGlo); conditions: Homo sapiens, 22Rv1, 144 h, read-out: 22RV1 (IC50, nM)
[2] = biological target: T2, GR (cytosol from IM-9 cells) (Homo sapiens, UniProt P04150); experiment: GR binding assay (3H-Dexamethasone displacement)
T2 sequence (P04150 1-777): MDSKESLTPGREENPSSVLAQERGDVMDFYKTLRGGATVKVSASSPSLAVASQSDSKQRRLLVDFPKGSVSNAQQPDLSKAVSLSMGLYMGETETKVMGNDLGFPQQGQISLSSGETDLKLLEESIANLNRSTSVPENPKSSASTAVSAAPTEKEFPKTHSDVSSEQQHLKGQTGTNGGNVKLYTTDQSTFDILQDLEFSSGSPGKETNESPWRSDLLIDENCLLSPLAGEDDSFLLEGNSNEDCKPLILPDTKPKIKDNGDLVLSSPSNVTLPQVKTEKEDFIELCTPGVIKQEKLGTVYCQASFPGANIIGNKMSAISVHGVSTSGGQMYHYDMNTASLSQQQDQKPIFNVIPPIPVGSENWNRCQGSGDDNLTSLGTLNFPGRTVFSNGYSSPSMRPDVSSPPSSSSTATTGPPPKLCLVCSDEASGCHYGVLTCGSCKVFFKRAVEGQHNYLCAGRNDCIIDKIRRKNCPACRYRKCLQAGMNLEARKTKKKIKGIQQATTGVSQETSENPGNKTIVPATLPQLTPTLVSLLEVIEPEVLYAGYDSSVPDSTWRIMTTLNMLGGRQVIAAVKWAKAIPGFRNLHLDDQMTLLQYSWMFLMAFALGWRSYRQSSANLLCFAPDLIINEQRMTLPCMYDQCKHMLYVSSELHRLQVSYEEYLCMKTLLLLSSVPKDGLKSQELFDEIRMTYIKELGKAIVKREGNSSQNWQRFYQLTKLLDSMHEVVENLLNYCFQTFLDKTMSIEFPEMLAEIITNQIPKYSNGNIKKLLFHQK

[3] = biological target: T3, full-length androgen receptor (HEK293 cells stably expressing) (Homo sapiens, UniProt P10275); experiment: AR antagonism assay (luciferase reporter)
T3 sequence (P10275 1-920): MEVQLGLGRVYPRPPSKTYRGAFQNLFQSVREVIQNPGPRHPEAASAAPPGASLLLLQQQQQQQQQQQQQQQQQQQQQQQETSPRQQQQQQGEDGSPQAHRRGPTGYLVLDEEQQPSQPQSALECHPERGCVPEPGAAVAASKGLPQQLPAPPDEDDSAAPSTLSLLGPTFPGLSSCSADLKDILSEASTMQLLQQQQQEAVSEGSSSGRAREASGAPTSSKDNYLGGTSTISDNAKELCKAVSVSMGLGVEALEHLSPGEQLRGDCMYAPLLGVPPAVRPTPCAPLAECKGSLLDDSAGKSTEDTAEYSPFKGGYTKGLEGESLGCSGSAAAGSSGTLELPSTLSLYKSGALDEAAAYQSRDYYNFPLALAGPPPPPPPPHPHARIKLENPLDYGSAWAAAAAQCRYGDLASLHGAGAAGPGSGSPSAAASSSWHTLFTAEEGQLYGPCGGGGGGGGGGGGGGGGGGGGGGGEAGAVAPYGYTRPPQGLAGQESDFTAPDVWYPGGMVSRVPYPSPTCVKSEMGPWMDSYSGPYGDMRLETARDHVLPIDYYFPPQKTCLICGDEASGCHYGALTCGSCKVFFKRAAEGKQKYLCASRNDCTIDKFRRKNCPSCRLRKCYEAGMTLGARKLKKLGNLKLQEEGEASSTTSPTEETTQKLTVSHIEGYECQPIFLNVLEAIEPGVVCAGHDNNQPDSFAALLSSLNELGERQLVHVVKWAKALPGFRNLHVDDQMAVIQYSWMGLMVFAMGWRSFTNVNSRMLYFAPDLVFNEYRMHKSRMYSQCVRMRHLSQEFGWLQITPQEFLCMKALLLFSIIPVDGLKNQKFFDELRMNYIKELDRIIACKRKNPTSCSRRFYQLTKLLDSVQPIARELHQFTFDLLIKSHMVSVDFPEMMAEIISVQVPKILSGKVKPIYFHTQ

IEC6 cells = experiment: Cell viability assay (CellTiterGlo); conditions: Rattus norvegicus, IEC-6, 144 h, read-out: IEC-6 (IC50, nM)
Experimental: Cell viability assay: LNCap, 22Rv1, MCF7, MDAMB361, T47D, and IEC6 cells were seeded at a density of 500-2000 cells/well in 96 well plates, and a ‘T0’ (timepoint 0) was included along with the assay plate. The plates were then incubated at 37° C., 5% CO2 in a cell culture incubator overnight. On the next day, the ‘T0’ plate was assayed using CellTiterGlo (Promega, Inc) according to the manufacturer's instructions. The appropriate compounds were diluted in DMSO and added to the assay plate (final DMSO concentration of 0.1-0.2%) on the next day. The assay plates were incubated for 6 days at 37° C., 5% CO2. After the incubation period, the plates were assayed using CellTiterGlo (Promega, Inc) according to the manufacturer's instructions and luminescence was read on the En Vision plate reader. […] GraphPadPrism was used to analyze the data and determine GI50/IC50 values.

Compound: CC[C@@]1(O)C(=O)OCc2c1cc1n(c2=O)Cc2c-1nc1cc(F)c(C)c3c1c2[C@@H](NC(=O)COCNC(=O)CNC(=O)[C@H](Cc1ccccc1)NC(=O)CNC(=O)CN(C)c1ccc([C@H]2C[C@@]4(C)[C@@H](CC[C@]4(OC(C)=O)C(C)=O)[C@@H]4CCC5=CC(=O)CCC5=C42)cc1)CC3 [Compound 34, (8S,11R,13S,14S,17R)-17-Acetyl-11-(4-(((S)-10-benzyl-1-(((1S,9S)-9-ethyl-5-fluoro-9-hydroxy-4-methyl-10,13-dioxo-2,3,9,10,13,15-hexahydro-1H,12H-benzo[de]pyrano[3′,4′:6,7]indolizino[1,2-b]quinolin-1-yl)amino)-1,6,9, 12,15-pentaoxo-3-oxa-5,8,11,14-tetraazahexadecan-16-yl)(methyl)amino)phenyl)-13-methyl-3-oxo-2,3,6,7,8,11,12,13,14,15,16,17-dodecahydro-1H-cyclopenta[a]phenanthren-17-yl Acetate] (X1-[Sar]GFG[NHCH2OCH2CO]-Exatecan)
- IC50 (T47D cells): 101 to 1000 nM
- PR antagonism [1]: a (IC50 =< 10 nM)
- IC50 (22Rv1 cells): 101 to 1000 nM
- IC50 [2]: < 10 nM
- IC50 [3]: > 1000 nM
- IC50 (IEC6 cells): 101 to 1000 nM
